The results in this text go back to patent publication US20170050939A1, “SMALL MOLECULE INHIBITORS OF G PROTEIN COUPLED RECEPTOR 6 KINASE POLYPEPTIDES” (Mayo Foundation for Medical Education and Research, priority 2014, published 2017).

The target of the first assay is T1, GRK6, recombinant full-length GST-tagged human protein (Homo sapiens, UniProt P43250).
T1 construct: GRK6, recombinant full-length GST-tagged human protein; GST
T1 sequence (P43250 whole entry): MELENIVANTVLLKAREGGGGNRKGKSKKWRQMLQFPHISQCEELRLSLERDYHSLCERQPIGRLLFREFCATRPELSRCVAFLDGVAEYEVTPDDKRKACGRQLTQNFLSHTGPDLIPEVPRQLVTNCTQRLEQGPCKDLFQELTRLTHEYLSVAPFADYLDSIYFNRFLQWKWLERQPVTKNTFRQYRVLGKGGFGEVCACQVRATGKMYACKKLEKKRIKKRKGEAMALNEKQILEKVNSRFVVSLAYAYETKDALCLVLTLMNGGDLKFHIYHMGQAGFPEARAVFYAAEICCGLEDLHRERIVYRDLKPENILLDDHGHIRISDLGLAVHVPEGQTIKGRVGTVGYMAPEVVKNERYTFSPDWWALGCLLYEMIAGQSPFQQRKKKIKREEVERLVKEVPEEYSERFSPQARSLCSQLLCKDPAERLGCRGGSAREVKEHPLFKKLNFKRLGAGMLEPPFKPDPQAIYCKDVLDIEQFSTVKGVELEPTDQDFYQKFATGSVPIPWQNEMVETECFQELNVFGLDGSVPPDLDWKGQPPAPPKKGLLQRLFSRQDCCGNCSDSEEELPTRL
Put plainly: GRK6 IC50 determination (8-point concentration-response). The assay is classed as biochemical.
Conditions: not given
The text has this:
Two hundred forty compounds were further characterized by determining IC50 values in a GRK6 assay. This screen has been previously described in WO 2013/063458, which is incorporated by reference in its entirety herein.
For `O=C(O)CSc1nnc(-c2cccc(C(=O)Nc3ccc(Cl)cc3)c2)[nH]1` [Compound 148], the IC50 stood at 11.7 µM.

As for `O=C(O)CSc1nnc(-c2cccc(C(=O)Nc3ccccc3)c2)[nH]1` [Compound 149], the 50% inhibitory concentration (IC50) amounted to 11.8 µM.

Consider `O=C(O)CSc1nnc(-c2cccc(Oc3ccccc3)c2)[nH]1` [Compound 150], for which the IC50 was found to be 12.4 µM.

In the case of `COc1cccc(NC(=O)c2cccc(-c3nnc(SCC(=O)O)[nH]3)c2)c1` [Compound 151], the IC50 was found to be 12.9 µM.

For the compound `O=C(O)CSc1nnc(-c2cccc3cc[nH]c23)[nH]1` [Compound 153], the IC50 amounted to 13.4 µM.

On to `O=C(O)CSc1nnc(-c2ccc3c(c2)OCCO3)[nH]1` [Compound 154], for which the IC50 amounted to 13.4 µM.

On to `Cc1cccc(-c2nnc(SCC(=O)O)[nH]2)c1` [Compound 156], for which the IC50 came to 14.4 µM.

With `O=C(O)CSc1nnc(-c2cccc(C(=O)Nc3ccc4c(c3)NC(=O)CC4)c2)[nH]1` [Compound 160], the IC50 turned out to be 17.3 µM.

Regarding `O=C(O)CSc1nnc(-c2cccc(C(=O)Nc3ccc4ncccc4c3)c2)[nH]1` [Compound 161], the half-maximal inhibitory concentration (IC50) amounted to 17.5 µM.

Consider `O=C(O)CSc1nnc(-c2cccc3c2OCO3)[nH]1` [Compound 164], for which the IC50 was determined as 18.5 µM.

Regarding `CN1CCOc2cc(-c3nnc(SCC(=O)O)[nH]3)ccc21` [Compound 166], the IC50 turned out to be 20.2 µM.

Regarding `CNC(=O)c1cccc(NC(=O)c2cccc(-c3nnc(SCC(=O)O)[nH]3)c2)c1` [Compound 167], the IC50 came to 20.4 µM.

As for `COc1ccc(NC(=O)c2cccc(-c3nnc(SCC(=O)O)[nH]3)c2)cc1` [Compound 170], the IC50 amounted to 21.3 µM.

As to `O=C(O)CSc1nnc(-c2cccc3ccccc23)[nH]1` [Compound 174], the IC50 worked out at 28.1 µM.

On to `O=C(O)CSc1nnc(-c2cccc3cnccc23)[nH]1` [Compound 175], for which the IC50 turned out to be 29.6 µM.

In the case of `O=C(O)CSc1nnc(-c2cccc(C(=O)NCc3ccccc3)c2)[nH]1` [Compound 176], the IC50 is 33.3 µM.

`O=C(O)CSc1nnc(-c2cccc(C(=O)Nc3cccnc3)c2)[nH]1` [Compound 177]: the half-inhibitory concentration (IC50) was determined as 34 µM.

Take `O=C(O)CSc1nnc(-c2cccc(C(=O)Nc3ccccc3Cl)c2)[nH]1` [Compound 186]: the half-maximal inhibitory concentration (IC50) turned out to be 47.8 µM.

For the compound `CC(C)Oc1ccc(-c2nnc(SCC(=O)O)[nH]2)cc1N` [Compound 190], the IC50 is 80.6 µM.

`CC(C)Oc1ccc(-c2nnc(SCC(=O)O)n2CC(=O)O)cc1[N+](=O)[O-]` [Compound 193]: the IC50 was greater than 200 µM.

For the compound `O=C(O)CSc1nnc(-c2cccc3c2OCCCO3)[nH]1` [Compound 197], the IC50 is greater than 100 µM.

For the compound `O=C(O)CS(=O)(=O)c1nnc(-c2ccccc2)[nH]1` [Compound 210], the IC50 was greater than 100 µM.

For the compound `O=C(O)CSc1nnc(-c2cc3c(cc2[N+](=O)[O-])OCO3)[nH]1` [Compound 212], the IC50 is greater than 58 µM.

In the case of `O=C(O)CSc1nnc(-c2c(O)ccc3ccccc23)[nH]1` [Compound 224], the IC50 was greater than 80 µM.

Take `Cn1cc(Cl)c2cc(-c3cc(-c4n[nH]c(SCC(=O)O)n4)cc([N+](=O)[O-])c3)ccc21` [Compound 227]: the IC50 amounted to 0.06 µM.

For the compound `NC(=O)c1cc2cc(-c3cc(-c4n[nH]c(SCC(=O)O)n4)cc([N+](=O)[O-])c3)ccc2[nH]1` [Compound 228], the concentration for half-maximal inhibition (IC50) was 0.101 µM.

As for `Cn1ccc2cc(-c3cc(-c4n[nH]c(SCC(=O)O)n4)cc([N+](=O)[O-])c3)cc(Cl)c21` [Compound 229], the IC50 stood at 0.114 µM.

Take `Cc1cn(C)c2ccc(-c3cc(-c4nnc(SCC(=O)O)[nH]4)cc([N+](=O)[O-])c3)cc12` [Compound 230]: the IC50 turned out to be 0.15 µM.

For `Cc1cc(-c2cc(-c3nnc(SCC(=O)O)[nH]3)cc([N+](=O)[O-])c2)cc2ccn(C)c12` [Compound 231], the IC50 is 0.15 µM.

Regarding `N#Cc1cc2cc(-c3cc(-c4nnc(SCC(=O)O)[nH]4)cc([N+](=O)[O-])c3)ccc2[nH]1` [Compound 232], the IC50 was determined as 0.184 µM.

With `O=C(O)CSc1nnc(-c2cc(-c3cc(Cl)c4ccccc4c3)cc([N+](=O)[O-])c2)[nH]1` [Compound 233], the IC50 came out at 0.209 µM.

For `Cc1cc2cc(-c3cc(-c4nnc(SCC(=O)O)[nH]4)cc([N+](=O)[O-])c3)ccc2n1C` [Compound 234], the IC50 was 0.267 µM.

Regarding `Cc1c(-c2cc(-c3nnc(SCC(=O)O)[nH]3)cc([N+](=O)[O-])c2)ccc2[nH]c(C(N)=O)cc12` [Compound 235], the IC50 amounted to 0.358 µM.

Consider `Cc1c(-c2cc(-c3nnc(SCC(=O)O)[nH]3)cc([N+](=O)[O-])c2)ccc2[nH]c(C#N)cc12` [Compound 236], for which the IC50 stood at 0.402 µM.

For the compound `O=C(O)CSc1nnc(-c2cc(-c3cccc4c3oc3ccccc34)cc([N+](=O)[O-])c2)[nH]1` [Compound 237], the IC50 came to 0.438 µM.

For the compound `Cc1ccc2cc(-c3cc(-c4nnc(SCC(=O)O)[nH]4)cc([N+](=O)[O-])c3)ccc2c1` [Compound 238], the IC50 was 0.442 µM.

As to `Cn1ccc2cc(-c3cc(-c4nnc(SCC(=O)O)[nH]4)cc(C(F)(F)F)c3)ccc21` [Compound 239], the IC50 was determined as 0.729 µM.

Consider `O=C(O)CSc1nnc(-c2cc(-c3ccc4c(c3)[nH]c3ccccc34)cc([N+](=O)[O-])c2)[nH]1` [Compound 240], for which the half-inhibitory concentration (IC50) came out at 0.93 µM.

Staying with this assay, now noted: 20 nM GRK6, 12 μM ATP (Km), 1 μM Peptide 216, 7 h incubation.
For the compound `COc1ccc(-c2nnc(SCC(=O)O)[nH]2)cc1O` [Compound 152], the IC50 was 13.3 µM.

With `O=C(O)CSc1nnc(-c2ccc(N3CCCC3=O)cc2)[nH]1` [Compound 157], the IC50 was 15.4 µM.

For the compound `COc1cc(-c2nnc(SCC(=O)O)[nH]2)cc([N+](=O)[O-])c1O` [Compound 158], the IC50 was found to be 15.9 µM.

For the compound `O=C(O)CSc1nnc(-c2cccc(Cn3cccn3)c2)[nH]1` [Compound 159], the IC50 was 16.2 µM.

On to `C[S+]([O-])c1cccc(-c2nnc(SCC(=O)O)[nH]2)c1` (stereo not shown) [Compound 162], for which the IC50 was 17.5 µM.

For `COc1ccc(F)c(-c2nnc(SCC(=O)O)[nH]2)c1` [Compound 163], the IC50 came to 18.3 µM.

In the case of `CNS(=O)(=O)c1cccc(-c2nnc(SCC(=O)O)[nH]2)c1` [Compound 165], the IC50 is 18.9 µM.

Consider `COc1cc(-c2nnc(SCC(=O)O)[nH]2)cc(O)c1OC` [Compound 168], for which the IC50 is 20.7 µM.

Turning to `COc1ccc(-c2nnc(SCC(=O)O)[nH]2)c(O)c1` [Compound 169], the half-maximal inhibitory concentration (IC50) came to 20.9 µM.

Take `O=C(O)CSc1nnc(-c2cccc(N3CCNCC3)c2)[nH]1` [Compound 171]: the IC50 turned out to be 21.9 µM.

As for `COc1cc(F)c(-c2nnc(SCC(=O)O)[nH]2)cc1OC` [Compound 172], the half-maximal inhibitory concentration (IC50) was 23.7 µM.

With `CCN(CC)c1ccc(-c2nnc(SCC(=O)O)[nH]2)c(O)c1` [Compound 173], the IC50 stood at 25.8 µM.

As for `CN(CCC#N)c1ccc(-c2nnc(SCC(=O)O)[nH]2)cc1` [Compound 179], the IC50 amounted to 35.3 µM.

With `O=C(O)CSc1nnc(-c2ccc(N3CCCCC3)cc2F)[nH]1` [Compound 180], the IC50 amounted to 35.7 µM.

Regarding `COc1cc(F)c(-c2nnc(SCC(=O)O)[nH]2)c(F)c1` [Compound 181], the IC50 turned out to be 38.5 µM.

Regarding `O=C(O)CSc1nnc(-c2ccc(OC3CCNCC3)cc2)[nH]1` [Compound 182], the half-maximal inhibitory concentration (IC50) was 40 µM.

As to `CN(C)c1ccc(-c2nnc(SCC(=O)O)[nH]2)c([N+](=O)[O-])c1` [Compound 183], the IC50 turned out to be 40 µM.

In the case of `CN(C)Cc1ccc(-c2nnc(SCC(=O)O)[nH]2)cc1` [Compound 184], the IC50 amounted to 40 µM.

Regarding `Cc1cc(C=O)c(O)c(-c2nnc(SCC(=O)O)[nH]2)c1` [Compound 185], the IC50 stood at 45.3 µM.

For the compound `O=C(O)CSc1nnc(-c2cccc(N3CCCCC3)c2)[nH]1` [Compound 187], the IC50 amounted to 51.8 µM.

Take `CSc1ccccc1-c1nnc(SCC(=O)O)[nH]1` [Compound 188]: the IC50 stood at 74.1 µM.

On to `O=C(O)CSc1nnc(-c2cc(C(=O)O)ccc2F)[nH]1` [Compound 191], for which the IC50 was 81.7 µM.

`COc1ccc(Br)cc1-c1nnc(SCC(=O)O)[nH]1` [Compound 192]: the IC50 worked out at 87 µM.

For orientation: IC50 means the point on the concentration scale where inhibition reaches its midpoint.
